According to patent publication US5424395A (priority 1992, dated 1995):
“Also recorded” adds a separate entry of the source. Where no end group is shown, it is not given here.

Tests used:
[1] = extracellular fluid (ECF) from tobacco leaf in 50 mM Tris, pH 7.4; settings: 37° C., up to one hour
[2] = tested on: extracellular plant proteases; assay: Resistance to proteolytic degradation by leaf extracellular fluid (ECF), HPLC; type: in vitro ADME, tobacco; settings: 2.5% (v/v) ECF, 50 mM Tris pH 7.4, 37° C., one hour, relative to area of parent peak with no added ECF
From the text: To determine the sensitivity of AMPPPs to extracellular proteases, and to determine the site of processing by these proteases, a system was designed to obtain extracellular fluid from leaves of maize, tobacco, and potato and to use these to test the stability of AMPPPs.
Extracellular fluid (ECF) was obtained in accordance with Z. Klement, "Method Of Obtaining Fluid From the Intercellular Space of Foliage and the Fluid's Merit As Substrate For Phytobacterial Pathogens," supra by cutting interveinal pieces from tobacco leaf after they were rinsed in deionized water. The segments were submerged in water in a vacuum desiccator and vacuum was applied for five to 10 minutes. The vacuum was released slowly, the leaves were blotted dry and four to five pieces were rolled and placed in a 50 mL disposable syringe barrel cut down so as to be able to fit in a swinging bucket centrifuge rotor. The syringe barrel was placed in a 50 mL screw cap conical centrifuge tube and centrifuged in a swinging bucket rotor at 500×g for 30 minutes. […]
Peptides were analyzed by reverse phase chromatography on a 4.6 mm×250 mm Vydac C-4 protein column (Nest Group, Southboro, Mass.) using a 0% to 60% acetonitrile gradient in 0.1% TFA in 30 minutes on a Hewlett-Packard HP1090 high pressure liquid chromatograph (Hewlett-Packard, Avondale, Pa.). […] These peptides were purified and analyzed by FAB-MS and amino acid analysis. […]

[3] = tested on: Erwinia carotovora carotovora strain SR319 (Ecc SR319); assay: Antibacterial bioassay, minimum complete inhibitory concentration (MCIC); type: cell-based; settings: for activity against Ecc SR319 (in words): even at concentrations higher than 150 micrograms AMPPP/mL; for MEAN MCIC VALUE: lowest peptide concentration with no bacterial growth, after 20 hours, Luria broth, 28° C., mean of at least three replicate experiments
Procedure: Erwinia carotovora carotovora strain SR319 (Ecc SR319) (a gift of Dr. C. H. Liao, USDA-ARS, Philadelphia, Pa.) was streaked on a plate of LB agar and grown overnight at 28° C. After 24 hours, a loopful of Ecc SR319 was picked from the agar plate and was added to 3 mL of Luria broth (10 g Bacto-tryptone, 5 g Bacto-yeast extract, and 10 g sodium chloride per liter of solution; autoclaved sterile) in a capped, sterile 10 mL test tube. This culture was grown overnight before its optical density at 630 nm was recorded using a Dynatech MR600 microplate reader (Dynatech Laboratories, Inc., Alexandria, Va.). A portion of the overnight culture was adjusted with Luria broth to obtain a culture with an optical density at 630 nm of 0.2. About 250 microliters of this culture was added to 2250 microliters of Luria broth in a capped, sterile 10 mL test tube before this diluted culture was grown for 3 hours at 28° C. in a shaking incubator. The optical density at 630 nm of the freshly grown culture was recorded and a portion of this mid-logarithmic growth phase culture was diluted 1000-fold with Luria broth to an approximate concentration of about 10^5 colony forming units per mL of culture. About 85 microliters of this diluted culture was added to 12 wells in a 96 well microtiter plate for each AMPPP to be tested, with 1-4 replicate sets of 12 wells prepared for each AMPPP within a single experiment. Stock solutions of each AMPPP were prepared at a concentration of 1 mg/mL and 0-15 microliters of each peptide stock solution were added to a single well in the microtiter plate followed by a sufficient volume of water to bring the total well volume to 100 microliters. Typical peptide volumes assayed were 0, 1, 2, 3, 4, 5, 6, 7, 8, 9, 10 and 15 microliters, which corresponds to a final peptide concentration in the range of 0-150 micrograms/mL. The microtiter plates were sealed with parafilm and incubated on a shaking platform at 28° C. for 44 hours. The optical density of each Ecc SR319 culture well was recorded at 20 hours and then at 44 hours. A minimum complete inhibitory concentration (MCIC) was then determined for each replicate set of varying peptide concentrations for each AMPPP whereby the MCIC is defined as the lowest peptide concentration at which no bacterial growth was observed. Table I lists mean MCIC values computed after 20 hours of treatment from at least three replicate experiments with each AMPPP. "Met(S)(O)" and "Met(R)(O)" refer to the diastereomeric forms of a methionine sulfoxide residue.
Although most of the AMPPP compounds listed in Table I were greater than 95% homogeneous following reverse phase HPLC purification, AMPPPs #24-26 and #28 were only 50-80% pure following partial purification and salt exchange by ion exchange chromatography.

P3 Fusarium [4] = assay: Antifungal bioassay (spore germination MCIC); type: cell-based, P3 Fusarium (field isolate); settings: lowest concentration with no spore germination, after 24 hours
Procedure: (§1) Fungi are grown on an appropriate medium, in this case a potato dextrose agar plate, for several weeks. At the end of that period, the plate was flooded with about 5 mL of sterile distilled water to harvest spores. The spore concentration was determined by use of a hemocytometer and the spore suspension was stored in a sterile tube at 4° C. until it was needed. Then 82 microliters of potato dextrose broth and 3 microliters of spore suspension (ranging from 10^5 to 10^7 spores total) was then added to 12 wells in a 96 well microtiter plate for each AMPPP to be tested, with 1-4 replicate sets of 12 wells prepared for each AMPPP within a single experiment. […] The amount of spore germination and fungal growth was recorded as a qualitative measurement at each observation time using a system of pluses and minuses: [-] meant no germination having occurred, [+] meant swollen spores with an extended germ tube, [++] meant the beginnings of mycelial growth with the overall appearance of a loose lattice, and [+++] meant a dense mycelial growth with the overall appearance of a thick opaque meshwork. The MCIC value for each AMPPP tested was then recorded, where the MCIC value is defined as the lowest peptide concentration at which no spore germination occurred (rating=[-]). […]

Trichoderma reesei = assay: Antifungal bioassay (spore germination MCIC); type: cell-based; settings: lowest concentration with no spore germination, after 24 hours
Procedure: as §1

P3 Fusarium [5] = assay: Effect of ECF or spent media on antifungal activity of AMPPPs; type: cell-based; settings: ECF source Tobacco Leaf, 10% (v/v); comparison of MCIC with and without ECF
From the text: It is critical to understand the effect of plant proteolytic enzymes on AMPPP activity because any AMPPP applied to crop plants will be in contact with plant tissues and any associated plant proteases. It is important to assess the bioactivity of an AMPPP which may be cleaved by one or more plant proteases as well as to recognize that such an event has occurred. An extract of extracellular fluid (ECF) as described in Example 14 is a useful reagent in determining such loss of antimicrobial activity of AMPPPs due to exposure to plant proteases in the extracellular compartment of plant tissues. Bioassay experiments were conducted with 300-1000 pregerminated P3 Fusarium spores essentially as described in Example 13 for various AMPPPs exposed to ECF from several crop species, or exposed to spent media collected as a supernatant from centrifuged three-day-old P3 Fusarium cultures grown in potato dextrose broth (PDB), corn stalk medium (CSM), or water as detailed below. The only major difference in the bioassay method used from that described in Example 13 was that the bioassay was conducted in a total culture volume of 10 microliters rather than 100 microliters. ECF was present in these bioassays at a final concentration of 10% (v/v) and was added concurrently with an AMPPP to the Fusarium spores at various AMPPP concentrations. […]

## GIGKFLFSAKKFGKAFVGEIMNS-OH
[1]
  cleaved bond: Phe7-Ser8

## GIGKFLHAAKKFGKAFVGEIMNS-OH
[1]
  cleaved bond: His7-Ala8

## GIGKFLHEAKKFGKAFVGEIMNS-OH
[1]
  cleaved bond: His7-Glu8

## GIGKFLHSAGKFGKAFVGEIMKS-OH
[1]
  cleaved bond: His7-Ser8

## GIGKFLHSAKKFGKAFVGEIMNS [AMPPP 1, Magainin 2-OH]
[2]
  Total Area Under Chromatogram Peaks: Fragment Gly^1 Xaa^7: 15.2%
[2]; cerebrospinal or other body fluid, read-out: Total Area Under Chromatogram Peaks: Parent AMPPP
  remaining at 1 h: 54.4%

## GIGKFLHSAKKFGKAFVGEIMNS-OH
[1]
  cleaved bond: His7-Ser8; also recorded: Met21-Asn22

## GIGKFLHTAKKFGKAFVGEIMNS-OH
[1]
  cleaved bond: His7-Thr8

## GIGKFLKSAKKFGKAFVGEIMNS-OH
[1]
  cleaved bond: Lys7-Ser8

## GIGKFLRSAKKFGKAFVGEIMNS-OH
[1]
  cleaved bond: Arg7-Ser8

## [Met^21 (R)(O)]Mag 2-OH [AMPPP 7]
[3]
  activity against Ecc SR319 (in words): not active
  MEAN MCIC VALUE: > 150 micrograms/mL
P3 Fusarium [4]
  Mean MCIC Values against: P3 Fusarium (10^7 spores): 50 micrograms/mL
Trichoderma reesei
  Mean MCIC Values against: Trichoderma reesei (10^6 spores): 75 micrograms/mL

## [Met^21 (S)(O)Mag 2-OH [AMPPP 6]
[3]
  activity against Ecc SR319 (in words): not active
  MEAN MCIC VALUE: > 150 micrograms/mL
P3 Fusarium [4]
  Mean MCIC Values against: P3 Fusarium (10^7 spores): 40 micrograms/mL
Trichoderma reesei
  Mean MCIC Values against: Trichoderma reesei (10^6 spores): 75 micrograms/mL
P3 Fusarium [5]
  Approximate % Reduction in Antifungal Activity by ECF: 50%
